# Test results taken from US20260182569A1, “SMART BIOSTIMULANT DELIVERY FOR PLANT GROWTH AND DEVELOPMENT” (King Abdullah University of Science and Technology, priority 2022, published 2026).
# Columns and labels:
# pepper fruits = assay: LC-MS analysis of pepper fruits from field trial for MiZax-3; assay type: in vivo
# 3T3 cells = assay: Cytotoxicity analysis, live-dead viability and CCK-8 assays; assay type: cell-based; details: viability after 24 hours
# Excerpt: FIG. 10A illustrates a cytotoxicity analysis of precursor molecules, including Zn(NO3)2, 2-MIm, and MiZax-3, according to some embodiments. FIG. 10B illustrates a cytotoxicity analysis of ZIF-8 and ZIF-8@MiZax-3 complexes, according to some embodiments. Assessing the safety of this synthetic platform is critical. Accordingly, it is important to check if any of the materials or degraded building blocks are transferred from the rhizosphere to the actual fruit. For cytotoxicity analysis, live-dead viability and cell counting kit-8 (CCK-8) assays were performed according to the manufacturer's protocol. Briefly, 3T3 cells (1×10^4 cells per well) were seeded onto a 96-well plate. After 24 hours, cells were incubated with different concentrations (0.1, 0.5, 1, 5, 10, and 50 μg/mL) of ZIF-8 and ZIF-8 loaded with MiZax-3. In addition, to evaluate the cytotoxicity of the particles after degradation at low pH, 3T3 cells were incubated with Zn(NO3)2 and 2-MIm at concentrations of (0.01, 0.05, 0.1, 0.5, 1, 5, 10, and 50 μg/mL) and with MiZax-3 at (0.01, 0.05, 0.1, 0.5, 1, 5, 10, and 50 ng/mL). The cell viability was measured after 24 hours.
# [1] = test system: Capsicum (C. annuum L. var. California Wonder); assay: Capsicum field trial, growth and yield; assay type: in vivo
# Procedure: FIG. 10C illustrates a schematic representation of the final product utilized for soil treatment, according to some embodiments. The final products included ZIF-8, MiZax-3, and ZIF-8@MiZax-3. These products were added to the sand/soil for the field experiment. FIG. 10D illustrates pictures of a field experiment utilizing ZIF-8@MiZax-3, according to some embodiments. Capsicum (C. annuum L. var. California Wonder) seedlings used for the field trial were initially germinated in soil and grown until the 4-week-old stage in a greenhouse under a semi-controlled environment adjusted to 28° C. (day)/26° C. (night) temperature, under 12 hours-light photoperiod with 60% humidity for nursery. During the nursery period, seedlings were given Hoagland solution to boost their growth before transferring to the field. The uniformly selected seedlings were transferred to the field during the winter season. The field used for the capsicum trial for testing ZIF-8, MiZax-3, and ZIF-8@MiZax-3 was divided into plots and treatments were allocated by following randomized complete block design (RCBD) with three replications as previously described. Each plot size was around 2 m×1.2 m with a planting distance of 50 cm×60 cm (8 plants/plot). After a week of acclimation, the first soil treatments were completed by mixing ZIF-8 (˜33.3 mg/L soil), MiZax-3 (˜1.38 mg/L soil), and ZIF-8@MiZax-3 (˜33.3 mg/L soil) directly on top of each plant stem on the soil surface. The treatments were repeated twice with a month gap in between. Plants were watered with a drip irrigation system twice a day, with an average of half a liter of water per individual. Plant phenotyping data were collected until 13 weeks after transplanting (13WAT) stage to the field. FIG. 11B illustrates a graph of the number of buds per individual at 4WAT, according to some embodiments. […] Two consecutive harvests were completed to compare the total fresh fruit yield harvested per total number of plants (n=24) between treatments and mock. The ZIF-8, MiZax-3 and ZIF-8@MiZax-3 treatments enhanced the total yield by 26.37%, 31.76% and 35.11%, respectively. […] In addition, zinc fertilizers can alter the microbial communities in the rhizosphere, which promotes plant growth and eventually increases yield.
# [2] = Thermal stability in amino acid media, PBS and HEPES, 45° C. for 24 hours (UV-vis); assay type: physicochemical; details: amino acid and buffer (PBS, HEPES) solutions
# Excerpt: Organic matter is combined with more than 90% of the nitrogen sources present in the soil, with 20%-40% of this ratio in amino form. The amino acid (AA) composition of soil organic matter depends on several factors, for instance, pH, plant interaction with other microorganisms, environmental factors (e.g., temperature and CO2 levels), and chemical and nutrient composition. Thus, considering the complexity of using soil as substrates for plants as well as the mechanisms that these undergo during their growth stages, it is important to develop more resistant materials that remain stable under certain conditions. To test the stability of ZIF-8@MiZax-3, it was dissolved in a series of AA media and incubated it at 45° C. for 24 hours. Additionally, PBS and HEPES solutions were utilized to assess the thermal stability in biological and physiological conditions.
# A set of samples were prepared as follows: Aspartic acid (5 mM), Glutamine (5 mM), Histidine (5 mM), PBS (1×), Asparagine (5 mM), Glutamic acid (5 mM), Alanine (5 mM), HEPES (10 mM), Mixture of amino acids (5 mM) all in 5 mL of PBS and 1 drop of ethanol. Subsequently, the samples were vortexed for 10 seconds and incubated at 45° C. for 24 hours. […]
# A decrease in intensity around 283 nm wavelength and remarkable shifts in the absorbance maxima of MiZax-3 were readily observed after the incubation period. […]
# [3] = fresh fruit, total number of plants n=24
compound,measurement,setting,value
"COc1ccc(Oc2cccc(/C=C/C(C)=O)c2)cc1 [MiZax-3, (E)-4-(3-(4-methoxyphenoxy)phenyl) but-3-en-2-one]",MiZax-3 in pepper fruits of treated plants,pepper fruits,no detectible MiZax-3
same,Concentration up to which high biocompatibility was exhibited,3T3 cells,up to 50 ng/ml
same,Number of flower buds per individual,[1]; 4WAT,significantly higher number of flower buds compared to the mock and ZIF-8 treated seedlings
same,Plant height,[1]; 4WAT,significantly taller than mock and ZIF-8 treated plants
same,Average dry shoot biomass per individual plant,"[1]; 13WAT, compared to mock, no statistically significant difference",upwards trend
same,Plant health (appearance),"[1]; 13WAT, versus mock",healthier than the mock plants
same,Average Total Fruit Number,"[1]; capsicum field trial, soil treatment",53.17
same,Harvest-1,[1]; [3],4464.8 g
same,Harvest-2,[1]; [3],5423.8 g
same,Yield Enhancement,[1]; total yield versus mock,31.76%
same,Total Yield,"[1]; two harvests, total number of plants n=24",9888.6 g
same,Shift of UV-vis absorption after thermal incubation,[2],significant wavelength shifts up to 332 nm
